Like-named read-outs stand apart in the source and are kept apart here.
System: test plant species
Assay: Post-emergent herbicidal activity test (greenhouse, foliar spray, visual growth reduction)
Type: in vivo
Details: post-emergence, 336 h, 140 g ai/ha
In short: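 Visual scoring 14 d after treatment (0 = no injury, 100 = complete control) against nontreated and solvent-blank plants gave percent growth reduction. Foliar application used a track sprayer delivering 187 L/ha to seedlings at first or second true leaf stage, grown at 23–29 °C day, ~15 h photoperiod.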

[1] = ALOMY: blackgrass (Alopecurus myosuroides), 14 days after application, read-out: Visual Growth Reduction (%) 14 Days After Application, ALOMY
[2] = AMARE: redroot pigweed (Amaranthus retroflexus), 14 days after application, read-out: Visual Growth Reduction (%) 14 Days After Application, AMARE
[3] = AVEFA: wild oat (Avena fatua), 14 days after application, read-out: Visual Growth Reduction (%) 14 Days After Application, AVEFA
[4] = CHEAL: lambsquarters (Chenopodium album), 14 days after application, read-out: Visual Growth Reduction (%) 14 Days After Application, CHEAL
[5] = CIRAR: canada thistle (Cirsium arvense), 14 days after application, read-out: Visual Growth Reduction (%) 14 Days After Application, CIRAR
[6] = CYPES: yellow nutsedge (Cyperus esculentus), 14 days after application, read-out: Visual Growth Reduction (%) 14 Days After Application, CYPES
[7] = DIGSA: crabgrass (Digitaria sanguinalis), 14 days after application, read-out: Visual Growth Reduction (%) 14 Days After Application, DIGSA
[8] = ECHCG: barnyardgrass (Echinochloa crus-galli), 14 days after application, read-out: Visual Growth Reduction (%) 14 Days After Application, ECHCG
[9] = IPOHE: ivy-leaf morning glory (Ipomoea hederacea), 14 days after application, read-out: Visual Growth Reduction (%) 14 Days After Application, IPOHE
[10] = KCHSC: kochia (Bassia scoparia), 14 days after application, read-out: Visual Growth Reduction (%) 14 Days After Application, KCHSC
[11] = ORYSA: rice (Oryza sativa), 14 days after application, read-out: Visual Growth Reduction (%) 14 Days After Application, ORYSA
[12] = SETFA: giant foxtail (Setaria faberi), 14 days after application, read-out: Visual Growth Reduction (%) 14 Days After Application, SETFA
[13] = SORVU: grain sorghum (Sorghum vulgare), 14 days after application, read-out: Visual Growth Reduction (%) 14 Days After Application, SORVU
[14] = STEME: common chickweed (Stellaria media), 14 days after application, read-out: Visual Growth Reduction (%) 14 Days After Application, STEME
[15] = TRZAS: wheat, spring (Triticum aestivum), 14 days after application, read-out: Visual Growth Reduction (%) 14 Days After Application, TRZAS

Structure (SMILES) | pest or weed control at 140 g/ha [1] | pest or weed control at 140 g/ha [2] | pest or weed control at 140 g/ha [3] | pest or weed control at 140 g/ha [4] | pest or weed control at 140 g/ha [5] | pest or weed control at 140 g/ha [6] | pest or weed control at 140 g/ha [7] | pest or weed control at 140 g/ha [8] | pest or weed control at 140 g/ha [9] | pest or weed control at 140 g/ha [10] | pest or weed control at 140 g/ha [11] | pest or weed control at 140 g/ha [12] | pest or weed control at 140 g/ha [13] | pest or weed control at 140 g/ha [14] | pest or weed control at 140 g/ha [15] | further results
COC(=O)c1nc(-c2ccc(C(F)(F)F)cc2Cl)c(F)c(Cl)c1Cl [F43, methyl 3,4-dichloro-6-(2-chloro-4-(trifluoromethyl)phenyl)-5-fluoropicolinate] | 0 to 29% | 0 to 29% | 0 to 29% | 0 to 29% | 0 to 29% | 0 to 29% | 0 to 29% | 0 to 29% | 0 to 29% | 0 to 29% | 0 to 29% | 0 to 29% | 45 to 59% | 0 to 29% | 0 to 29% | 
COC(=O)c1nc(-c2ccc(C(F)(F)F)nc2)c(F)cc1Cl [F92, methyl 5-chloro-3-fluoro-6′-(trifluoromethyl)-[2,3′-bipyridine]-6-carboxylate] | 0 to 29% | 0 to 29% | 0 to 29% | 0 to 29% | 0 to 29% | 0 to 29% | 30 to 44% | 0 to 29% | 30 to 44% | 0 to 29% | 0 to 29% | 0 to 29% | 0 to 29% | 0 to 29% | 0 to 29% | 
COC(=O)c1nc(-c2ccc(I)cc2)c(F)cc1Cl [F100, Methyl 3-chloro-5-fluoro-6-(4-iodophenyl) picolinate] | 0 to 29% | 0 to 29% | 0 to 29% | 0 to 29% | 45 to 59% | 30 to 44% | 0 to 29% | 0 to 29% | 30 to 44% | 0 to 29% | 0 to 29% | 0 to 29% | 30 to 44% | 0 to 29% | 0 to 29% | 
COC(=O)c1nc(-c2cc(OC)c(C(F)(F)F)cc2Cl)c(F)cc1Cl [F331, Methyl 3-chloro-6-(2-chloro-5-methoxy-4-(trifluoromethyl)phenyl)-5-fluoropicolinate] |  |  |  |  |  |  |  | 0 to 29% | 95 to 100% | 60 to 74% | 0 to 29% | 0 to 29% | 45 to 59% | 0 to 29% | 0 to 29% | pest or weed control at 140 g/ha (blackgrass (Alopecurus myosuroides), 14 Days After Application, read-out: Visual Growth Reduction (%) ALOMY): 0 to 29%; pest or weed control at 140 g/ha (crabgrass (Digitaria sanguinalis), 14 Days After Application, read-out: Visual Growth Reduction (%) DIGSA): 0 to 29%; pest or weed control at 140 g/ha (lambsquarters (Chenopodium album), 14 Days After Application, read-out: Visual Growth Reduction (%) CHEAL): 45 to 59%; pest or weed control at 140 g/ha (redroot pigweed (Amaranthus retroflexus), 14 Days After Application, read-out: Visual Growth Reduction (%) AMARE): 45 to 59%; pest or weed control at 140 g/ha (wild oat (Avena fatua), 14 Days After Application, read-out: Visual Growth Reduction (%) AVEFA): 0 to 29%; pest or weed control at 140 g/ha (yellow nutsedge (Cyperus esculentus), 14 Days After Application, read-out: Visual Growth Reduction (%) CYPES): 0 to 29%
COC(=O)c1nc(-c2cc3c(cc2Cl)OC(F)(F)O3)ccc1Cl [F124, Methyl 3-chloro-6-(6-chloro-2,2-difluorobenzo[d] [1,3]dioxol-5-yl)picolinate] | 45 to 59% | 75 to 84% | 30 to 44% | 85 to 94% | 75 to 84% | 0 to 29% | 85 to 94% | 75 to 84% | 95 to 100% | 45 to 59% | 0 to 29% | 30 to 44% | 75 to 84% | 0 to 29% | 60 to 74% | 
